Assays:
adult dogs [1] = assay: Blood test for drug-induced hepatotoxicity, dog experiment
Description: Two adult dogs weighing 12 and 15 kg were used. One (coded A) of them received 500 mg/kg of body weight of acetaminophen oral solution (dissolved in water); and the other one (coded B) received a higher concentration (1,200 mg/kg of body weight) of acetaminophen via subcutaneous injection. After Nembutal was injected and the respirator was put on, the hair on the front legs of the dogs was shaved and a blood pressure waveform sensor was inserted by operation. The waveform of artery blood pressure waveform on brachial position was continuously recorded and analyzed by a computer with a frequency of 100 data per minute. After surgery and before the drug was orally taken or injected, the blood pressure waveform of each dog was measured for two hours as the baseline. After the drug was orally taken or injected, the blood pressure waveform was continuously monitored for analyzing the hepatotoxicity induced by the drug, and blood samples were periodically taken from a tube inserted into the artery for determining the level of hepatotoxicuty.

adult dogs [2] = assay: Artery blood pressure waveform analysis before and after taking the drug, dog experiment; format: in vivo; settings: Code A dog, 500 mg/kg oral
Description: The definition of parameter altered amount is: (the parameter value after taking the drug—the parameter value before taking the drug)/the parameter value before taking the drug *100%

[3] = Code A dog, 500 mg/kg oral, 1 hour after the drug was administered
[4] = Code A dog, 500 mg/kg oral, 6 hours after the drug was administered
[5] = Code A dog, 500 mg/kg oral, 12 hours after the drug was administered
[6] = Code B dog, 1,200 mg/kg subcutaneous injection, 1 hour after the drug was administered
[7] = Code B dog, 1,200 mg/kg subcutaneous injection, 6 hours after the drug was administered
[8] = Code B dog, 1,200 mg/kg subcutaneous injection, 12 hours after the drug was administered
[9] = before and after taking the drug (12 hours)

SMILES: CC(=O)Nc1ccc(O)cc1 [acetaminophen]
- ALT (SGPT) (adult dogs [1]; [3]): 25 IU/leter
- ASG (SGOT) (adult dogs [1]; [3]): 35 IU/leter
- Total biliflavin (adult dogs [1]; [3]): 0.3 mg/dL
- ALT (SGPT) (adult dogs [1]; [4]): 23 IU/leter
- ASG (SGOT) (adult dogs [1]; [4]): 33 IU/leter
- Total biliflavin (adult dogs [1]; [4]): 0.2 mg/dL
- ALT (SGPT) (adult dogs [1]; [5]): 24 IU/leter
- ASG (SGOT) (adult dogs [1]; [5]): 45 IU/leter
- Total biliflavin (adult dogs [1]; [5]): 0.2 mg/dL
- ALT (SGPT) (adult dogs [1]; [6]): 33 IU/leter
- ASG (SGOT) (adult dogs [1]; [6]): 38 IU/leter
- Total biliflavin (adult dogs [1]; [6]): 0.2 mg/dL
- ALT (SGPT) (adult dogs [1]; [7]): 37 IU/leter
- ASG (SGOT) (adult dogs [1]; [7]): 198 IU/leter
- Total biliflavin (adult dogs [1]; [7]): 0.2 mg/dL
- ALT (SGPT) (adult dogs [1]; [8]): 47 IU/leter
- ASG (SGOT) (adult dogs [1]; [8]): 298 IU/leter
- Total biliflavin (adult dogs [1]; [8]): 0.2 mg/dL
- biliflavin (adult dogs [1]; Code B dog, 1,200 mg/kg subcutaneous injection, acute poisoning experiment): does not raise significantly
- ALT (adult dogs [1]; Code B dog, 1,200 mg/kg subcutaneous injection, after 12 hours): 47 IU/L
- AST (SGOT) (adult dogs [1]; Code B dog, 1,200 mg/kg subcutaneous injection, after 12 hours, baseline 41): 298 IU/liter
- hepatotoxicity shown by blood test results (adult dogs [1]; Code B dog, 1,200 mg/kg via subcutaneous injection): a certain level of hapatotoxicity
- Oblique angle parameter D1 = (Bb-Aa)/ab (adult dogs [2]; 12 hours after taking the drug): D1 = (Bb-Aa)/ab = 92 mmHg/sec.
- Oblique angle parameter D2 = (Bb-Cc)/bc (adult dogs [2]; 12 hours after taking the drug): D2 = (Bb-Cc)/bc = 350 mmHg/sec.
- Oblique angle parameter D3 = (Dd-Cc)/cd (adult dogs [2]; 12 hours after taking the drug): D3 = (Dd-Cc)/cd = 420 mmHg/sec.
- Oblique angle parameter D4 = (Dd-Ee)/de (adult dogs [2]; 12 hours after taking the drug): D4 = (Dd-Ee)/de = 110 mmHg/sec.
- Oblique angle parameter D5 = D1 + D2 (adult dogs [2]; 12 hours after taking the drug): D5 = D1 + D2 = 1270 mmHg/sec.
- Oblique angle parameter D6 = D3 + D4 (adult dogs [2]; 12 hours after taking the drug): D6 = D3 + D4 = 530 mmHg/sec.
- Pressure parameter P1 = Aa (adult dogs [2]; 12 hours after taking the drug): P1 = Aa = 149 mmHg
- Pressure parameter P2 = Bb (adult dogs [2]; 12 hours after taking the drug): P2 = Bb = 195 mmHg
- Pressure parameter P3 = Cc (adult dogs [2]; 12 hours after taking the drug): P3 = Cc = 156 mmHg
- Pressure parameter P4 = Dd (adult dogs [2]; 12 hours after taking the drug): P4 = Dd = 173 mmHg
- Pressure parameter P5 = Ee (adult dogs [2]; 12 hours after taking the drug): P5 = Ee = 149 mmHg
- Ratio parameter RA1 = A6/A5 (adult dogs [2]; 12 hours after taking the drug): RA1 = A6/A5 = 1.46
- Ratio parameter RA2 = A5/A7 (adult dogs [2]; 12 hours after taking the drug): RA2 = A5/A7 = 0.41
- Ratio parameter RA3 = A6/A7 (adult dogs [2]; 12 hours after taking the drug): RA3 = A6/A7 = 0.59
- Ratio parameter RP1 = Dd/Bb (adult dogs [2]; 12 hours after taking the drug): RP1 = Dd/Bb = 0.89
- Ratio parameter RT1 = ab/ae (adult dogs [2]; 12 hours after taking the drug): RT1 = ab/ae = 0.12
- Ratio parameter RT2 = ac/ae (adult dogs [2]; 12 hours after taking the drug): RT2 = ac/ae = 0.40
- Ratio parameter RT3 = ad/ae (adult dogs [2]; 12 hours after taking the drug): RT3 = ad/ae = 0.49
- Superficial measure parameter A1 = AabB (adult dogs [2]; 12 hours after taking the drug): A1 = AabB = 9 sec. * mmHg
- Superficial measure parameter A2 = BbcC (adult dogs [2]; 12 hours after taking the drug): A2 = BbcC = 19 sec. * mmHg
- Superficial measure parameter A3 = CcdD (adult dogs [2]; 12 hours after taking the drug): A3 = CcdD = 7 sec. * mmHg
- Superficial measure parameter A4 = DdeE (adult dogs [2]; 12 hours after taking the drug): A4 = DdeE = 34 sec. * mmHg
- Superficial measure parameter A5 = A1 + A2 (adult dogs [2]; 12 hours after taking the drug): A5 = A1 + A2 = 28 sec. * mmHg
- Superficial measure parameter A6 = A3 + A4 (adult dogs [2]; 12 hours after taking the drug): A6 = A3 + A4 = 41 sec. * mmHg
- Superficial measure parameter A7 = A5 + A6 (adult dogs [2]; 12 hours after taking the drug): A7 = A5 + A6 = 69 sec. * mmHg
- Time parameter T1 = ab (adult dogs [2]; 12 hours after taking the drug): T1 = ab = 0.05 second
- Time parameter T2 = bc (adult dogs [2]; 12 hours after taking the drug): T2 = bc = 0.11 second
- Time parameter T3 = cd (adult dogs [2]; 12 hours after taking the drug): T3 = cd = 0.04 second
- Time parameter T4 = de (adult dogs [2]; 12 hours after taking the drug): T4 = de = 0.21 second
- Time parameter T5 = ae (adult dogs [2]; 12 hours after taking the drug): T5 = ae = 0.41 second
- Pressure parameter Altered amount P1 = Aa (adult dogs [2]; [9]): P1 = Aa = 0.7 mmHg
- Pressure parameter Altered amount P2 = Bb (adult dogs [2]; [9]): P2 = Bb = 1.0 mmHg
- Pressure parameter Altered amount P3 = Cc (adult dogs [2]; [9]): P3 = Cc = 1.3 mmHg
- Pressure parameter Altered amount P4 = Dd (adult dogs [2]; [9]): P4 = Dd = 2.4 mmHg
- Pressure parameter Altered amount P5 = Ee (adult dogs [2]; [9]): P5 = Ee = 0.7 mmHg
- Ratio parameter Altered amount RA1 = A6/A5 (adult dogs [2]; [9]): RA1 = A6/A5 = 12.3
- Ratio parameter Altered amount RA2 = A5/A7 (adult dogs [2]; [9]): RA2 = A5/A7 = −6.8
- Ratio parameter Altered amount RA3 = A6/A7 (adult dogs [2]; [9]): RA3 = A6/A7 = 5.3
- Ratio parameter Altered amount RP1 = Dd/Bb (adult dogs [2]; [9]): RP1 = Dd/Bb = 9.2
- Ratio parameter Altered amount RT1 = ab/ae (adult dogs [2]; [9]): RT1 = ab/ae = −25.0
- Ratio parameter Altered amount RT2 = ac/ae (adult dogs [2]; [9]): RT2 = ac/ae = −5.0
- Ratio parameter Altered amount RT3 = ad/ae (adult dogs [2]; [9]): RT3 = ad/ae = −11.0
- Superficial measure parameter Altered amount A1 = AabB (adult dogs [2]; [9]): Al = AabB = −10.0 sec. * mmHg
- Superficial measure parameter Altered amount A2 = BbcC (adult dogs [2]; [9]): A2 = BbcC = 11.8 sec. * mmHg
- Superficial measure parameter Altered amount A3 = CcdD (adult dogs [2]; [9]): A3 = CcdD = −12.5 sec. * mmHg
- Superficial measure parameter Altered amount A4 = DdeE (adult dogs [2]; [9]): A4 = DdeE = 25.9 sec. * mmHg
- Superficial measure parameter Altered amount A5 = A1 + A2 (adult dogs [2]; [9]): A5 = A1 + A2 = 3.7 sec. * mmHg
- Superficial measure parameter Altered amount A6 = A3 + A4 (adult dogs [2]; [9]): A6 = A3 + A4 = 17.1 sec. * mmHg
- Superficial measure parameter Altered amount A7 = A5 + A6 (adult dogs [2]; [9]): A7 = A5 + A6 = 11.3 sec. * mmHg
- Time parameter Altered Amount T2 = bc (adult dogs [2]; [9]): T2 = bc = 10.0 second

Source: patent US7074190B2, “Non-invasive apparatus system for monitoring drug hepatoxicity and uses thereof” (priority 2002, dated 2006)
